Earlier results in patent publication US5891887A, “Use of [R-(Z)]-α-(methoxyimino)-α-(1-azabicyclo [2.2.2.]oct-3-yl)acetonitrile to reduce amyloid βA4 formation in alzheimer's disease” (priority 1994, dated 1999).

System: m1 and/or m3 receptor subtypes
Conditions: by activation of m1 and/or m3 receptor subtypes; literature

Structure (SMILES) | Production of non-amyloidogenic APP fragments
CC1OC2(CS1)CN1CCC2CC1 (stereo not drawn) [AF-102B] | enhance
CC(C[N+](C)(C)C)OC(N)=O (stereo not drawn) [bethanechol] | enhance
CCCCCCOc1nsnc1C1=CCCN(C)C1 [xanomeline] | enhance
